This assay relates to CD2F1 mice, L1210 leukemia ip, survival T/C. Nature of the assay: NCI In Vivo Anticancer Drug Screen. Data for tumor model L1210 Leukemia (intraperitoneal) in CD2F1 (CDF1) mice. The settings on record: endpoint: mean survival time, higher = longer survival. The method, boiled down:
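Tumor-bearing mice (transplanted tumor) were split into treated and vehicle control groups, and the measured endpoint of each treated group was divided by that of its vehicle controls.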

[1] abbreviates: dose: 100.0 mg/kg/injection, schedule: Q01DX009 (ip), vehicle: saline with Tween-80.
[2] abbreviates: dose: 100.0 mg/kg/injection, schedule: Q04DX003 (ip), vehicle: saline with Tween-80.
Where [3] appears, read: dose: 200.0 mg/kg/injection, schedule: Q01DX009 (ip), vehicle: saline with Tween-80.
Where [4] appears, read: dose: 200.0 mg/kg/injection, schedule: Q04DX003 (ip), vehicle: saline with Tween-80.
Setting [5] is: dose: 400.0 mg/kg/injection, schedule: Q01DX009 (ip), vehicle: saline with Tween-80.
Setting [6] is: dose: 400.0 mg/kg/injection, schedule: Q04DX003 (ip), vehicle: saline with Tween-80.
Setting [7] is: dose: 50.0 mg/kg/injection, schedule: Q04DX002 (ip), vehicle: saline with Tween-80.
The mark [8] stands for this setting: dose: 75.0 mg/kg/injection, schedule: Q01DX001 (ip), vehicle: saline.
Setting [9] is: dose: 150.0 mg/kg/injection, schedule: Q01DX001 (ip), vehicle: saline.
Setting [10] is: dose: 50.0 mg/kg/injection, schedule: Q01DX009 (ip), vehicle: Klucel (hydroxypropylcellulose) (HPC).
Setting [11] is: dose: 100.0 mg/kg/injection, schedule: Q01DX009 (ip), vehicle: Klucel (hydroxypropylcellulose) (HPC).
Setting [12] is: dose: 200.0 mg/kg/injection, schedule: Q01DX009 (ip), vehicle: Klucel (hydroxypropylcellulose) (HPC).
Setting [13] is: dose: 12.5 mg/kg/injection, schedule: Q04DX002 (ip), vehicle: saline with Tween-80.
[14] abbreviates: dose: 25.0 mg/kg/injection, schedule: Q04DX002 (ip), vehicle: saline with Tween-80.

Where “and” joins values, the source holds several entries; their conditions need not be identical. Identical values can stand only once. Toxic doses and inconclusive results are not listed.

Data on 22 compounds can be found in PubChem BioAssay AID256 (DTP/NCI, 2004).

Regarding `[Cl][Pt+2][Cl].[NH-]C1CCCCC1C1CCCCC1[NH-]` (stereo not drawn), the T/C (dose: 6.25 mg/kg/injection, schedule: Q04DX003 (ip), vehicle: distilled water + Tween-80) was 123 % of control; the T/C (dose: 25.0 mg/kg/injection, schedule: Q04DX003 (ip), vehicle: distilled water + Tween-80) was 173 % of control; the T/C (dose: 100.0 mg/kg/injection, schedule: Q04DX003 (ip), vehicle: distilled water + Tween-80) is 86 % of control.
As to `COC1=[C]([Hg][Br])C(OC)OC1OC` (stereo not drawn), the T/C reads like this: (dose: 5.0 mg/kg/injection, schedule: Q01DX001 (ip), vehicle: saline) 98 % of control; (dose: 10.0 mg/kg/injection, schedule: Q01DX001 (ip), vehicle: saline) 102 % of control; (dose: 20.0 mg/kg/injection, schedule: Q01DX001 (ip), vehicle: saline) 110 % of control.
On to `O=S(=O)(Cc1ccccc1)Cc1ccccc1`, for which the T/C is 101 % of control under setting [1]; 103 % of control under setting [2]; 98 % of control under setting [3]; 103 % of control under setting [4]; 96 % of control under setting [5]; 102 % of control under setting [6].
In the case of `CN(C)CCNCc1ccc2c(c1)OCO2`, the T/C is 102 % of control (dose: 25.0 mg/kg/injection, schedule: Q01DX001 (ip), vehicle: saline); 102 % of control (dose: 50.0 mg/kg/injection, schedule: Q01DX001 (ip), vehicle: saline); 102 % of control (dose: 100.0 mg/kg/injection, schedule: Q01DX001 (ip), vehicle: saline).
In the case of `CC(C)C(O)(c1ccccc1)C(O)(c1ccccc1)C(C)C` (stereo not drawn), the T/C by setting is: under setting [7], 100 % of control; (dose: 100.0 mg/kg/injection, schedule: Q04DX002 (ip), vehicle: saline with Tween-80) 96 % of control; (dose: 200.0 mg/kg/injection, schedule: Q04DX002 (ip), vehicle: saline with Tween-80) 100 % of control.
As to `NNC(=O)Nc1cccnc1`, the T/C is 106 % of control (dose: 18.75 mg/kg/injection, schedule: Q01DX009 (ip), vehicle: saline); 98 % of control (dose: 37.5 mg/kg/injection, schedule: Q01DX009 (ip), vehicle: saline); 101 % of control (dose: 75.0 mg/kg/injection, schedule: Q01DX009 (ip), vehicle: saline).
For `C[N+]1=C(c2ccccc2)CCC(C(C)(C)C)C1` (stereo not drawn), the T/C by setting is: (dose: 37.5 mg/kg/injection, schedule: Q04DX003 (ip), vehicle: saline) 102 % of control; under setting [8], 95 % of control; (dose: 75.0 mg/kg/injection, schedule: Q04DX003 (ip), vehicle: saline) 96 % of control; under setting [9], 92 % of control; (dose: 150.0 mg/kg/injection, schedule: Q04DX003 (ip), vehicle: saline) 100 % of control.
On to `OCCN(c1ccccc1)C1CCCCC1`, for which the T/C runs as follows: under setting [10], 113 % of control; under setting [11], 102 % of control; under setting [12], 106 % of control.
Turning to `CC1(C)CC(=O)N(Cc2ccccc2)N1C(=O)c1ccccc1`, the T/C was 113 % of control (dose: 100.0 mg/kg/injection, schedule: Q01DX001 (ip), vehicle: saline with Tween-80); 106 % of control (dose: 200.0 mg/kg/injection, schedule: Q01DX001 (ip), vehicle: saline with Tween-80); 101 % of control (dose: 400.0 mg/kg/injection, schedule: Q01DX001 (ip), vehicle: saline with Tween-80).
For `O=C1C=C(NS(=O)(=O)c2ccccc2)C(=O)c2ccccc21`, the T/C under setting [1] was 101 % of control; the T/C under setting [2] was 101 % of control; the T/C under setting [3] was 97 % of control; the T/C under setting [4] is 95 % of control; the T/C under setting [5] is 97 % of control; the T/C under setting [6] was 89 % of control.
For `CCCCCCCCCCC/C=C\C(C#N)C(=O)OCC` (stereo not drawn), the T/C by setting is: under setting [2], 103 % of control; under setting [4], 108 % of control; under setting [6], 87 % of control.
Consider `CC(CNC1CCCCC1)OC(=O)c1ccc(N(C)C)cc1` (stereo not drawn), for which the T/C under setting [8] is 99 % of control and the T/C under setting [9] was 100 % of control.
Consider `CCCCCCC(C)NCC(O)COc1cccc(C)c1` (stereo not drawn), for which the T/C by setting is: under setting [13], 101 % of control; under setting [14], 96 % of control; under setting [7], 93 % of control.
Consider `CC(=O)Oc1ccc2c3c(ccc2c1)C1CCC(=O)C1(C)CC3` (stereo not drawn), for which the T/C under setting [2] is 97 % of control, the T/C under setting [4] was 92 % of control and the T/C under setting [6] is 97 % of control.
Consider `Nc1ncnc2c1ncn2C1OC(C(=O)OCCO)C(O)C1O` (stereo not drawn), for which the T/C by setting is: (dose: 12.5 mg/kg/injection, schedule: Q01DX009 (ip), vehicle: saline) 108 % of control; (dose: 25.0 mg/kg/injection, schedule: Q01DX009 (ip), vehicle: saline) 114 % of control; (dose: 25.0 mg/kg/injection, schedule: Q01DX009 (ip), vehicle: suspension in saline) 110 % of control; (dose: 25.0 mg/kg/injection, schedule: Q04DX002 (ip), vehicle: saline) 93 % of control; (dose: 50.0 mg/kg/injection, schedule: Q01DX009 (ip), vehicle: suspension in saline) 124 % of control; (dose: 50.0 mg/kg/injection, schedule: Q04DX002 (ip), vehicle: saline) 95 % of control. Also, the T/C reads like this: (dose: 100.0 mg/kg/injection, schedule: Q04DX002 (ip), vehicle: saline) 93 % of control; (dose: 200.0 mg/kg/injection, schedule: Q04DX002 (ip), vehicle: saline) 90 % of control.
Take `Nc1nc([S-])c2[nH]cnc2n1.[Cl-].[Cl-].[H+].[Pd+2].[Pd+2].[Pd+2]`: the T/C by setting is: (dose: 3.13 mg/kg/injection, schedule: Q04DX003 (ip), vehicle: saline with Tween-80) 124 % of control; (dose: 6.25 mg/kg/injection, schedule: Q04DX003 (ip), vehicle: saline with Tween-80) 164 % of control; (dose: 100.0 mg/kg/injection, schedule: Q04DX003 (ip), vehicle: suspension in saline) 114 % of control and 91 % of control.
Regarding `N#CC1CNC(N)NC1N` (stereo not drawn), the T/C is, setting by setting: under setting [10], 98 % of control; under setting [11], 91 % of control; under setting [12], 98 % of control.
With `CCCCCCCCCCCCCCCC(=O)O[C@@]12C[C@@H](C)[C@@]3(O)[C@@H](C=C(CO)C[C@]4(O)C(=O)C(C)=C[C@@H]34)[C@@H]1C2(C)C`, the T/C by setting is: (dose: 0.06 mg/kg/injection, schedule: Q01DX009 (ip), vehicle: other) 98 % of control; (dose: 0.12 mg/kg/injection, schedule: Q01DX009 (ip), vehicle: saline) 103 % of control; (dose: 0.13 mg/kg/injection, schedule: Q01DX009 (ip), vehicle: other) 88 % of control; (dose: 0.25 mg/kg/injection, schedule: Q01DX009 (ip), vehicle: other) 94 % of control; (dose: 0.25 mg/kg/injection, schedule: Q01DX009 (ip), vehicle: saline) 102 % of control; (dose: 0.5 mg/kg/injection, schedule: Q01DX009 (ip), vehicle: other) 102 % of control. The T/C was 103 % of control (dose: 0.5 mg/kg/injection, schedule: Q01DX009 (ip), vehicle: saline) and 102 % of control (dose: 1.0 mg/kg/injection, schedule: Q01DX009 (ip), vehicle: saline).
As for `Cc1ccc(C(C)C)c(OCC[N+]2(CCOc3cc(C)ccc3C(C)C)CC=CC2)c1`, the T/C was 100 % of control (dose: 6.25 mg/kg/injection, schedule: Q04DX002 (ip), vehicle: saline with Tween-80); 94 % of control under setting [13]; 100 % of control under setting [14].
For `O=C(Nc1cccc(S(=O)(=O)F)c1)c1cccc([N+](=O)[O-])c1`, the T/C under setting [2] is 105 % of control, the T/C under setting [4] was 102 % of control and the T/C under setting [6] is 96 % of control.
`CC(C)(O)C(Cl)(Cl)Cl`: the T/C (dose: 50.0 mg/kg/injection, schedule: Q01DX009 (ip), vehicle: saline) was 97 % of control; the T/C (dose: 100.0 mg/kg/injection, schedule: Q01DX009 (ip), vehicle: saline) was 95 % of control; the T/C (dose: 200.0 mg/kg/injection, schedule: Q01DX009 (ip), vehicle: saline) was 107 % of control.
Take `COc1cc2cnccc2cc1O`: the T/C runs as follows: (dose: 25.0 mg/kg/injection, schedule: Q01DX009 (ip), vehicle: water) 95 % of control; (dose: 50.0 mg/kg/injection, schedule: Q01DX009 (ip), vehicle: water) 101 % of control; (dose: 100.0 mg/kg/injection, schedule: Q01DX009 (ip), vehicle: water) 96 % of control.
